From patent publication US10344017B2, “Pyrrolcarboxamide derivatives for the inhibition of ERK5” (CANCER RESEARCH TECHNOLOGY LIMITED, priority 2014, dated 2019)

Target: T1, ERK5 (Homo sapiens, UniProt Q13164)
T1 construct: made in house
Assay: ERK5 IMAP assay (fluorescence polarisation)
Assay type: biochemical
Details: average (e.g. geometric mean) where more than one data point; read-out: ERK5 IC50
Procedure: The assay buffer was prepared using 0.01% Tween®-20 5× stock, supplied as part of IMAP™ FP Progressive Binding System Kit (Molecular Devices R7436) and diluted to 1× using miliQ H2O. 1 μL of a 1M DTT stock was added for every 1 mL of 1× assay buffer to give a final concentration of 1 mM DTT.
ERK5 was expressed and purified at CRT-DL by Leon Pang and Sue Young. Aliquots were stored at −80° C. The ERK5 working solution was used at a […] final dilution in assay buffer. […] For 1 plate, […] of ERK5 stock was added to 2262 μL of 1× assay buffer.
To prepare the IMAP™ binding solution for one plate 20.5 μL of IMAP™ binding reagent stock, 1476 μL of 1× binding buffer A (60%), and 984 μL of binding buffer B (40%) (IMAP™ FP Progressive screening express kit (Molecular Devices R8127) was added to 9819.5 μL of milliQ H2O.
1 μL of inhibitor (in 60:40 H2O/DMSO) or 60:40 H2O/DMSO (for controls and blanks) were dry-spotted into the relevant wells of a 384-well assay plate using the MATRIX PlateMate® Plus. 5 μL of ERK5 working solution was added to test and control wells, and 5 μL of 1× assay buffer added to blanks; 4 μL of ATP/substrate working solution was added to all wells using a Matrix multichannel pipette. The plate was sealed using DMSO resistant clear seal and incubated for 2 h at 37° C. 1 μL of the kinase reaction mixture from the first plate was dry spotted into a second 384-well assay plate using the MATRIX PlateMate® Plus. 9 μL of assay buffer was added, followed by 30 μL of IMAP™ binding solution using a multichannel pipette. The plate was incubated at RT in darkness for 2 h. The assay plate was then read on an Analyst HT plate reader (Molecular Devices) using the settings described below: […]

T1 sequence (Q13164 whole entry): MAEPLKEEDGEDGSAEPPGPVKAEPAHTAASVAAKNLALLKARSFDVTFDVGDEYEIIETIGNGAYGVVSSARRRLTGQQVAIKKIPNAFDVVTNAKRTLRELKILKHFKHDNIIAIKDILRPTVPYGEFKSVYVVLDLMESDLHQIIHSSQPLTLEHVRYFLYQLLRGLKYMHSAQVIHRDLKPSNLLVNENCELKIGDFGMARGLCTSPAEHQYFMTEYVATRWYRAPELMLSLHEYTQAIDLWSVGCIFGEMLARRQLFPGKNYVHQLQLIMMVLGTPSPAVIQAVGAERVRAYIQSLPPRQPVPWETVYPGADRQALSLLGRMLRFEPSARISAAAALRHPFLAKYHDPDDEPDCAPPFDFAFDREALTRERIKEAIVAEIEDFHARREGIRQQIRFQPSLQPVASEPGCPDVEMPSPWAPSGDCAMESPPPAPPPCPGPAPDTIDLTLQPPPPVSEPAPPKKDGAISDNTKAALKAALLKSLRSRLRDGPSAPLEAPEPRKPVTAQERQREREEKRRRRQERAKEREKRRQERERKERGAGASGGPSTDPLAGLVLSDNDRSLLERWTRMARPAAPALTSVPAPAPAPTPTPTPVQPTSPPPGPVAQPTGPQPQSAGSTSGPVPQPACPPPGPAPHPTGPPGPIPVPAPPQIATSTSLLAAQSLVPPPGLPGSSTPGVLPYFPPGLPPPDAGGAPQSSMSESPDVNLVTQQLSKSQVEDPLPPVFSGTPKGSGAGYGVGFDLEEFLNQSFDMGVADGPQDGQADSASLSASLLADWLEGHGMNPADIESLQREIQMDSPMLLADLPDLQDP

SMILES | IC50 [nM]
Cc1cc(NC(=O)c2cc(C(=O)c3c(Cl)ccc(Cl)c3F)c[nH]2)no1 [Example 58, 4-(3,6-Dichloro-2-fluorobenzoyl)-N-(5-methylisoxazol-3-yl)-1H-pyrrole-2-carboxamide] | 2480
COc1ccc(Cl)c(C(=O)c2c[nH]c(C(=O)Nc3ccc(NC4CCN(C)CC4)nc3)c2)c1F [Example 61, 4-(6-Chloro-2-fluoro-3-methoxybenzoyl)-N-(6-((1-methylpiperidin-4-yl)amino)pyridin-3-yl)-1H-pyrrole-2-carboxamide] | 26.9
COc1ccc(Cl)c(C(=O)c2c[nH]c(C(=O)Nc3cnn(C)c3)c2)c1F [Example 62, 4-(6-Chloro-2-fluoro-3-methoxybenzoyl)-N-(1-methyl-1H-pyrazol-4-yl)-1H-pyrrole-2-carboxamide] | 84.3
COCCn1cc(NC(=O)c2cc(C(=O)c3c(Cl)ccc(OC)c3F)c[nH]2)cn1 [Example 63, 4-(6-Chloro-2-fluoro-3-methoxybenzoyl)-N-(1-(2-methoxyethyl)-1H-pyrazol-4-yl)-1H-pyrrole-2-carboxamide] | 104
COc1ccc(Cl)c(C(=O)c2c[nH]c(C(=O)Nc3cnn(C4CCN(CC(F)(F)F)CC4)c3)c2)c1F [Example 64, 4-(6-Chloro-2-fluoro-3-methoxybenzoyl)-N-(1-(1-(2,2,2-trifluoroethyl)piperidin-4-yl)-1H-pyrazol-4-yl)-1H-pyrrole-2-carboxamide] | 2990
COc1ccc(Cl)c(C(=O)c2c[nH]c(C(=O)Nc3cnn(Cc4ccccn4)c3)c2)c1F [Example 65] | 53.8
COc1ccc(Cl)c(C(=O)c2c[nH]c(C(=O)Nc3cnn(Cc4cccnc4)c3)c2)c1F [Example 66, 4-(6-Chloro-2-fluoro-3-methoxybenzoyl)-N-(1-(pyridin-3-ylmethyl)-1H-pyrazol-4-yl)-1H-pyrrole-2-carboxamide] | 16.6
COc1ccc(Cl)c(C(=O)c2c[nH]c(C(=O)Nc3cnn(Cc4ccncc4)c3)c2)c1F [Example 67] | 16.3
COc1ccc(Cl)c(C(=O)c2c[nH]c(C(=O)Nc3cnn(CC4CCN(C)CC4)c3)c2)c1F [Example 68, 4-(6-Chloro-2-fluoro-3-methoxybenzoyl)-N-(1-((1-methylpiperidin-4-yl)methyl)-1H-pyrazol-4-yl)-1H-pyrrole-2-carboxamide] | 19.9
COc1ccc(F)c(C(=O)c2c[nH]c(C(=O)NC3CCN(C)CC3)c2)c1Cl [Example 71, 4-(2-chloro-6-fluoro-3-methoxybenzoyl)-N-(1-methylpiperidin-4-yl)-1H-pyrrole-2-carboxamide] | 173
COc1ccc(F)c(C(=O)c2c[nH]c(C(=O)Nc3cccnc3)c2)c1Cl [Example 73, 4-(2-chloro-6-fluoro-3-methoxybenzoyl)-N-(pyridin-3-yl)-1H-pyrrole-2-carboxamide] | 255
COc1ccc(Cl)c(C(=O)c2c[nH]c(C(=O)Nc3cncnc3)c2)c1F [Example 74, 4-(6-chloro-2-fluoro-3-methoxybenzoyl)-N-(pyrimidin-5-yl)-1H-pyrrole-2-carboxamide] | 202
COc1ccc(F)c(C(=O)c2c[nH]c(C(=O)Nc3cncnc3)c2)c1Cl [Example 75, 4-(2-chloro-6-fluoro-3-methoxybenzoyl)-N-(pyrimidin-5-yl)-1H-pyrrole-2-carboxamide] | 437
CCc1ncccc1NC(=O)c1cc(C(=O)c2c(F)cccc2Cl)c[nH]1 [Example 76, 4-(2-Chloro-6-fluorobenzoyl)-N-(2-ethylpyridin-3-yl)-1H-pyrrole-2-carboxamide] | 1580
O=C(Nc1cccnc1N1CCCC1)c1cc(C(=O)c2c(F)cccc2Cl)c[nH]1 [Example 80, 4-(2-Chloro-6-fluorobenzoyl)-N-(2-(pyrrolidin-1-yl)pyridin-3-yl)-1H-pyrrole-2-carboxamide] | 7980
Cc1ncccc1NC(=O)c1cc(C(=O)c2c(Cl)ccc(Cl)c2F)c[nH]1 [Example 81, 4-(3,6-Dichloro-2-fluorobenzoyl)-N-(2-methylpyridin-3-yl)-1H-pyrrole-2-carboxamide] | 394
CCc1ncccc1NC(=O)c1cc(C(=O)c2c(Cl)ccc(Cl)c2F)c[nH]1 [Example 82, 4-(3,6-Dichloro-2-fluorobenzoyl)-N-(2-ethylpyridin-3-yl)-1H-pyrrole-2-carboxamide] | 1050
CCCc1ncccc1NC(=O)c1cc(C(=O)c2c(Cl)ccc(Cl)c2F)c[nH]1 [Example 83, 4-(3,6-Dichloro-2-fluorobenzoyl)-N-(2-propylpyridin-3-yl)-1H-pyrrole-2-carboxamide] | 3540

SMILES | IC50 [nM]
COc1ncccc1NC(=O)c1cc(C(=O)c2c(Cl)ccc(Cl)c2F)c[nH]1 [Example 84, 4-(3,6-Dichloro-2-fluorobenzoyl)-N-(2-methoxypyridin-3-yl)-1H-pyrrole-2-carboxamide] | 1180
CCOc1ncccc1NC(=O)c1cc(C(=O)c2c(Cl)ccc(Cl)c2F)c[nH]1 [Example 85, 4-(3,6-Dichloro-2-fluorobenzoyl)-N-(2-ethoxypyridin-3-yl)-1H-pyrrole-2-carboxamide] | 6050
O=C(Nc1cccnc1N1CCCC1)c1cc(C(=O)c2c(Cl)ccc(Cl)c2F)c[nH]1 [Example 86, 4-(3,6-Dichloro-2-fluorobenzoyl)-N-(2-(pyrrolidin-1-yl)pyridin-3-yl)-1H-pyrrole-2-carboxamide] | 12200
Cc1ccncc1NC(=O)c1cc(C(=O)c2c(F)cccc2Cl)c[nH]1 [Example 87, 4-(2-Chloro-6-fluorobenzoyl)-N-(4-methylpyridin-3-yl)-1H-pyrrole-2-carboxamide] | 1260
CCc1ccncc1NC(=O)c1cc(C(=O)c2c(F)cccc2Cl)c[nH]1 [Example 88, 4-(2-Chloro-6-fluorobenzoyl)-N-(4-ethylpyridin-3-yl)-1H-pyrrole-2-carboxamide] | 2140
CCCc1ccncc1NC(=O)c1cc(C(=O)c2c(F)cccc2Cl)c[nH]1 [Example 89, 4-(2-Chloro-6-fluorobenzoyl)-N-(4-propylpyridin-3-yl)-1H-pyrrole-2-carboxamide] | 3340
COc1ccncc1NC(=O)c1cc(C(=O)c2c(F)cccc2Cl)c[nH]1 [Example 90, 4-(2-Chloro-6-fluorobenzoyl)-N-(4-methoxypyridin-3-yl)-1H-pyrrole-2-carboxamide] | 2190
CCOc1ccncc1NC(=O)c1cc(C(=O)c2c(F)cccc2Cl)c[nH]1 [Example 91, 4-(2-Chloro-6-fluorobenzoyl)-N-(4-ethoxypyridin-3-yl)-1H-pyrrole-2-carboxamide] | 2310
O=C(Nc1cnccc1N1CCCC1)c1cc(C(=O)c2c(F)cccc2Cl)c[nH]1 [Example 92, 4-(2-Chloro-6-fluorobenzoyl)-N-(4-(pyrrolidin-1-yl)pyridin-3-yl)-1H-pyrrole-2-carboxamide] | 16500
Cc1ccncc1NC(=O)c1cc(C(=O)c2c(Cl)ccc(Cl)c2F)c[nH]1 [Example 93, 4-(3,6-Dichloro-2-fluorobenzoyl)-N-(4-methylpyridin-3-yl)-1H-pyrrole-2-carboxamide] | 483
CCc1ccncc1NC(=O)c1cc(C(=O)c2c(Cl)ccc(Cl)c2F)c[nH]1 [Example 94, 4-(3,6-Dichloro-2-fluorobenzoyl)-N-(4-ethylpyridin-3-yl)-1H-pyrrole-2-carboxamide] | 1670
CCCc1ccncc1NC(=O)c1cc(C(=O)c2c(Cl)ccc(Cl)c2F)c[nH]1 [Example 95, 4-(3,6-Dichloro-2-fluorobenzoyl)-N-(4-propylpyridin-3-yl)-1H-pyrrole-2-carboxamide] | 2820
COc1ccncc1NC(=O)c1cc(C(=O)c2c(Cl)ccc(Cl)c2F)c[nH]1 [Example 96, 4-(3,6-Dichloro-2-fluorobenzoyl)-N-(4-methoxypyridin-3-yl)-1H-pyrrole-2-carboxamide] | 1000
CCOc1ccncc1NC(=O)c1cc(C(=O)c2c(Cl)ccc(Cl)c2F)c[nH]1 [Example 97, 4-(3,6-Dichloro-2-fluorobenzoyl)-N-(4-ethoxypyridin-3-yl)-1H-pyrrole-2-carboxamide] | 1380
O=C(Nc1cnccc1N1CCCC1)c1cc(C(=O)c2c(Cl)ccc(Cl)c2F)c[nH]1 [Example 98, 4-(3,6-Dichloro-2-fluorobenzoyl)-N-(4-(pyrrolidin-1-yl)pyridin-3-yl)-1H-pyrrole-2-carboxamide] | 8710
CS(=O)(=O)CCNc1ncc(NC(=O)c2cc(C(=O)c3c(Cl)ccc(Cl)c3F)c[nH]2)cn1 [Example 101, 4-(3,6-Dichloro-2-fluorobenzoyl)-N-(2-((2-(methylsulfonyl)ethyl)amino)pyrimidin-5-yl)-1H-pyrrole-2-carboxamide] | 115
CN1CCC(N(C)c2ncc(NC(=O)c3cc(C(=O)c4c(Cl)ccc(Cl)c4F)c[nH]3)cn2)CC1 [Example 105, 4-(3,6-Dichloro-2-fluorobenzoyl)-N-(2-(methyl(1-methylpiperidin-4-yl)amino)pyrimidin-5-yl)-1H-pyrrole-2-carboxamide] | 20.7
